Tests used:
Conditions in all cases: Compound concentration 1000.0 nM
[1] = biological target: Platelet-derived growth factor receptor beta (Homo sapiens) (UniProt P09619)
[2] = biological target: Phosphatidylinositol 3-kinase catalytic subunit type 3 (Homo sapiens) (UniProt Q8NEB9)
[3] = biological target: Dual specificity mitogen-activated protein kinase kinase 5 (Homo sapiens) (UniProt Q13163)
[4] = biological target: Dual specificity tyrosine-phosphorylation-regulated kinase 1B (Homo sapiens) (UniProt Q9Y463)
[5] = biological target: STE20-like serine/threonine-protein kinase (Homo sapiens) (UniProt Q9H2G2)
[6] = biological target: Mitogen-activated protein kinase kinase kinase kinase 1 (Homo sapiens) (UniProt Q92918)
Chain of Mitogen-activated protein kinase kinase kinase kinase 1 (Homo sapiens) (Q92918 whole entry, looked up): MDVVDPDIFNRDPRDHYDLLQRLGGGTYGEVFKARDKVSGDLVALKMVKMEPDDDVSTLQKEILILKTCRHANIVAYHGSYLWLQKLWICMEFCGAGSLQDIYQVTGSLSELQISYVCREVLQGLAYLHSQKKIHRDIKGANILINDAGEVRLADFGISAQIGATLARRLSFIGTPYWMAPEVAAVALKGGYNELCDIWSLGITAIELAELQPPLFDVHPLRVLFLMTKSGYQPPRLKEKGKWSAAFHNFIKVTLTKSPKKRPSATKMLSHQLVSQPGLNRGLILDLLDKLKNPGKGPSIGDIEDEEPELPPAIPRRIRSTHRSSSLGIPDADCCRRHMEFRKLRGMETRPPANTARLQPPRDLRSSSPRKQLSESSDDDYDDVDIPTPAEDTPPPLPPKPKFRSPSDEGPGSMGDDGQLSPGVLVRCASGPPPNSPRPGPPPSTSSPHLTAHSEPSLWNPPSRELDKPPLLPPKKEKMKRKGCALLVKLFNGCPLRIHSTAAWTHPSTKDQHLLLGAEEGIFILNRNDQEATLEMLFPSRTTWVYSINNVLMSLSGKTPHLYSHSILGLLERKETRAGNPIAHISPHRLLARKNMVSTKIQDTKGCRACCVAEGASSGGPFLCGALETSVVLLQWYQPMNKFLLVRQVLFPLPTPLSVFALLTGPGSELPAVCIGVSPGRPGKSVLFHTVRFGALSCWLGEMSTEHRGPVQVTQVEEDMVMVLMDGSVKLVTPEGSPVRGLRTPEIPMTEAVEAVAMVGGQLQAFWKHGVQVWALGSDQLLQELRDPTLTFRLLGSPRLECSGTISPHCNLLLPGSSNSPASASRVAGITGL

[7] = biological target: Mitogen-activated protein kinase kinase kinase kinase 2 (Homo sapiens) (UniProt Q12851)
Chain of Mitogen-activated protein kinase kinase kinase kinase 2 (Homo sapiens) (Q12851 whole entry): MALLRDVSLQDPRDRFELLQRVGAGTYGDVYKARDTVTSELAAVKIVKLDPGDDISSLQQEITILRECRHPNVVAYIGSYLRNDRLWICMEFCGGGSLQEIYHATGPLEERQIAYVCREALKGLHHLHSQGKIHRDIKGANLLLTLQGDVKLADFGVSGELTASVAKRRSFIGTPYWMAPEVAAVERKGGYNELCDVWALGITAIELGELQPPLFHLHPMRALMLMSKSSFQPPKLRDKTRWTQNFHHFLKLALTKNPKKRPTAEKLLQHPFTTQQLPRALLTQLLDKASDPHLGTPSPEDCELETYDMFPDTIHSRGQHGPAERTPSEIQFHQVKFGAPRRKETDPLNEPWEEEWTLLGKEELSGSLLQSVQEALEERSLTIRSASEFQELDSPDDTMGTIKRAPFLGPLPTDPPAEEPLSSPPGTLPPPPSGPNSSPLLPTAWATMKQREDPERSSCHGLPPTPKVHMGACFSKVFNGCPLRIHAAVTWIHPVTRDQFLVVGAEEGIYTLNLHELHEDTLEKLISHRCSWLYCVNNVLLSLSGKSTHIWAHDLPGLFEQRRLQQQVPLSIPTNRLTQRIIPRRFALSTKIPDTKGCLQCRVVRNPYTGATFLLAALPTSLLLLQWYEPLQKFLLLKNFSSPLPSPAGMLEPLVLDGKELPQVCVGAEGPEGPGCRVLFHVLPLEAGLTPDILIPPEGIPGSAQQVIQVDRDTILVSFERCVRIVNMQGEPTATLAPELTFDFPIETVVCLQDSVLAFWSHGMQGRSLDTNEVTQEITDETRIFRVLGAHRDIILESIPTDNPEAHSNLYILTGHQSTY

[8] = biological target: Dual specificity protein kinase CLK3 (Homo sapiens) (UniProt P49761)
[9] = tested on: Epidermal growth factor receptor (Homo sapiens), P00533 [L858R,T790M]
[10] = biological target: Calcium/calmodulin-dependent protein kinase kinase 1 (Homo sapiens) (UniProt Q8N5S9)
Chain of Calcium/calmodulin-dependent protein kinase kinase 1 (Homo sapiens) (Q8N5S9 whole entry, looked up): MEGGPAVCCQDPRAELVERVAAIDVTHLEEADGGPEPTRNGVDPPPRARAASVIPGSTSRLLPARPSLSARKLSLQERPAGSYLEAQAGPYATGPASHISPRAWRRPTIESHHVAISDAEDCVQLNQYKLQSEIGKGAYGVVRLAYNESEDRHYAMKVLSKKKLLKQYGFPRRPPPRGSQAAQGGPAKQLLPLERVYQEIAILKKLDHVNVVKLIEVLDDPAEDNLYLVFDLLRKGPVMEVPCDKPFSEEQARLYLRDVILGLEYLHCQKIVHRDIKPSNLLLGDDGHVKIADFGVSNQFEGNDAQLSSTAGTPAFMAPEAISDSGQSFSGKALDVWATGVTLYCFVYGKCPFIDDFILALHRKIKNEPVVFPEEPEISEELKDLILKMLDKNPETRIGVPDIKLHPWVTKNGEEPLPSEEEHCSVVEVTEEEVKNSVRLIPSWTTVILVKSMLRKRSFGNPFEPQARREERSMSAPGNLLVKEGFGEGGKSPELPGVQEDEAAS

[11] = biological target: Serine/threonine-protein kinase 35 (Homo sapiens) (UniProt Q8TDR2)
[12] = biological target: Mitogen-activated protein kinase 12 (Homo sapiens) (UniProt P53778)
[13] = biological target: Macrophage colony-stimulating factor 1 receptor (Homo sapiens) (UniProt P07333)
[14] = biological target: Myosin light chain kinase (Homo sapiens) (UniProt Q32MK0)
[15] = biological target: Activin receptor type-1-like (Homo sapiens) (UniProt P37023)
[16] = tested on: Hepatocyte growth factor receptor (Homo sapiens), P08581 [M1250T]
[17] = tested on: Phosphatidylinositol 4,5-bisphosphate 3-kinase catalytic subunit alpha isoform (Homo sapiens), P42336 [H1047L]
[18] = biological target: Mitogen-activated protein kinase kinase kinase 19 (Homo sapiens) (UniProt Q56UN5)
[19] = tested on: Receptor-type tyrosine-protein kinase FLT3 (Homo sapiens), P36888 [R834Q]
[20] = biological target: SRSF protein kinase 1 (Homo sapiens) (UniProt Q96SB4)
Chain of SRSF protein kinase 1 (Homo sapiens) (Q96SB4 whole entry): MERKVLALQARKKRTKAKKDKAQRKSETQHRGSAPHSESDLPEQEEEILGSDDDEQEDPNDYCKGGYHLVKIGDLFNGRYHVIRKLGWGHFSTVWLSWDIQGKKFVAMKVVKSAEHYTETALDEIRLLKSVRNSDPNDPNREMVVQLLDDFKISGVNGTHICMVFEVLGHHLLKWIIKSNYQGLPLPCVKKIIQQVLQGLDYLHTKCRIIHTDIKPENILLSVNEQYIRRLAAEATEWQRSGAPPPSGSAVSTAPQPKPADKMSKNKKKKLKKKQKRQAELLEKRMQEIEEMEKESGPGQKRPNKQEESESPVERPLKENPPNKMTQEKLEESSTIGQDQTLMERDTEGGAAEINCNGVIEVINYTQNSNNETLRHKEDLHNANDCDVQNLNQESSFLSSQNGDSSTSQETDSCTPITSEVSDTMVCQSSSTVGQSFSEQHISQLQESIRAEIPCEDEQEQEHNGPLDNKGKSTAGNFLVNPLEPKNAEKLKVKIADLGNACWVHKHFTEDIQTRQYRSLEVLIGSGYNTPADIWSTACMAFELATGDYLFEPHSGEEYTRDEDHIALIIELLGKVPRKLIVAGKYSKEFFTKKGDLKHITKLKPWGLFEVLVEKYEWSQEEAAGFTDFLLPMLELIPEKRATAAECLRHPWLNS

[21] = biological target: Tyrosine-protein kinase JAK3 (Homo sapiens) (UniProt P52333)
[22] = biological target: Serine/threonine-protein kinase NLK (Homo sapiens) (UniProt Q9UBE8)
[23] = biological target: Serine/threonine-protein kinase MRCK beta (Homo sapiens) (UniProt Q9Y5S2)
[24] = biological target: Muscle, skeletal receptor tyrosine-protein kinase (Homo sapiens) (UniProt O15146)
[25] = biological target: 3-phosphoinositide-dependent protein kinase 1 (Homo sapiens) (UniProt O15530)
[26] = biological target: Activin receptor type-2A (Homo sapiens) (UniProt P27037)
[27] = biological target: Tyrosine-protein kinase JAK1 (Homo sapiens) (UniProt P23458)
[28] = biological target: Serine/threonine-protein kinase Nek7 (Homo sapiens) (UniProt Q8TDX7)
[29] = biological target: Serine/threonine-protein kinase ICK (Homo sapiens) (UniProt Q9UPZ9)
[30] = biological target: Serine/threonine-protein kinase LATS2 (Homo sapiens) (UniProt Q9NRM7)
[31] = biological target: Protein kinase C eta type (Homo sapiens) (UniProt P24723)
[32] = biological target: Homeodomain-interacting protein kinase 1 (Homo sapiens) (UniProt Q86Z02)
[33] = biological target: Mitogen-activated protein kinase kinase kinase 1 (Homo sapiens) (UniProt Q13233)
[34] = biological target: Tyrosine-protein kinase Fes/Fps (Homo sapiens) (UniProt P07332)
Chain of Tyrosine-protein kinase Fes/Fps (Homo sapiens) (P07332 whole entry): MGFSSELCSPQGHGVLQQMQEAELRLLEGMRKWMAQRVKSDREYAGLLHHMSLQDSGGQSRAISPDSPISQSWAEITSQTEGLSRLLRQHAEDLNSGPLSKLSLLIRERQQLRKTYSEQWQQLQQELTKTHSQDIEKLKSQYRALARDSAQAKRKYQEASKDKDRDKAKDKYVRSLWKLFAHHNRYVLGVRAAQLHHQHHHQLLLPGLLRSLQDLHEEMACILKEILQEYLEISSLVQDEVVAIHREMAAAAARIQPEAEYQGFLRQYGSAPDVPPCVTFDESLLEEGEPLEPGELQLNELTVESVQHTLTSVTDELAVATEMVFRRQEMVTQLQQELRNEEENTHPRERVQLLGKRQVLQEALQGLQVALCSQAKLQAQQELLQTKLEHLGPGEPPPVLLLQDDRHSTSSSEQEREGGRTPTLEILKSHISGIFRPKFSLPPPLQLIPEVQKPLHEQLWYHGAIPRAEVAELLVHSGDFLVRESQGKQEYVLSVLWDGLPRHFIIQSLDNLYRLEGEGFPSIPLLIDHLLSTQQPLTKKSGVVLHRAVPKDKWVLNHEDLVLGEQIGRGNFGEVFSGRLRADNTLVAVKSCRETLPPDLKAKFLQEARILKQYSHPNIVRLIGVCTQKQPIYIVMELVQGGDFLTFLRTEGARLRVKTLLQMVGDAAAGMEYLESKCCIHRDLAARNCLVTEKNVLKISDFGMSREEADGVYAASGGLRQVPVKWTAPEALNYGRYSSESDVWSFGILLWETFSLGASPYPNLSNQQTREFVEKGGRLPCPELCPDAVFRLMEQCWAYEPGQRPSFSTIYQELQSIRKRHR

[35] = biological target: Serine/threonine-protein kinase 24 (Homo sapiens) (UniProt Q9Y6E0)
[36] = biological target: Serine/threonine-protein kinase Nek11 (Homo sapiens) (UniProt Q8NG66)
[37] = biological target: Vascular endothelial growth factor receptor 1 (Homo sapiens) (UniProt P17948)
Chain of Vascular endothelial growth factor receptor 1 (Homo sapiens) (P17948 whole entry): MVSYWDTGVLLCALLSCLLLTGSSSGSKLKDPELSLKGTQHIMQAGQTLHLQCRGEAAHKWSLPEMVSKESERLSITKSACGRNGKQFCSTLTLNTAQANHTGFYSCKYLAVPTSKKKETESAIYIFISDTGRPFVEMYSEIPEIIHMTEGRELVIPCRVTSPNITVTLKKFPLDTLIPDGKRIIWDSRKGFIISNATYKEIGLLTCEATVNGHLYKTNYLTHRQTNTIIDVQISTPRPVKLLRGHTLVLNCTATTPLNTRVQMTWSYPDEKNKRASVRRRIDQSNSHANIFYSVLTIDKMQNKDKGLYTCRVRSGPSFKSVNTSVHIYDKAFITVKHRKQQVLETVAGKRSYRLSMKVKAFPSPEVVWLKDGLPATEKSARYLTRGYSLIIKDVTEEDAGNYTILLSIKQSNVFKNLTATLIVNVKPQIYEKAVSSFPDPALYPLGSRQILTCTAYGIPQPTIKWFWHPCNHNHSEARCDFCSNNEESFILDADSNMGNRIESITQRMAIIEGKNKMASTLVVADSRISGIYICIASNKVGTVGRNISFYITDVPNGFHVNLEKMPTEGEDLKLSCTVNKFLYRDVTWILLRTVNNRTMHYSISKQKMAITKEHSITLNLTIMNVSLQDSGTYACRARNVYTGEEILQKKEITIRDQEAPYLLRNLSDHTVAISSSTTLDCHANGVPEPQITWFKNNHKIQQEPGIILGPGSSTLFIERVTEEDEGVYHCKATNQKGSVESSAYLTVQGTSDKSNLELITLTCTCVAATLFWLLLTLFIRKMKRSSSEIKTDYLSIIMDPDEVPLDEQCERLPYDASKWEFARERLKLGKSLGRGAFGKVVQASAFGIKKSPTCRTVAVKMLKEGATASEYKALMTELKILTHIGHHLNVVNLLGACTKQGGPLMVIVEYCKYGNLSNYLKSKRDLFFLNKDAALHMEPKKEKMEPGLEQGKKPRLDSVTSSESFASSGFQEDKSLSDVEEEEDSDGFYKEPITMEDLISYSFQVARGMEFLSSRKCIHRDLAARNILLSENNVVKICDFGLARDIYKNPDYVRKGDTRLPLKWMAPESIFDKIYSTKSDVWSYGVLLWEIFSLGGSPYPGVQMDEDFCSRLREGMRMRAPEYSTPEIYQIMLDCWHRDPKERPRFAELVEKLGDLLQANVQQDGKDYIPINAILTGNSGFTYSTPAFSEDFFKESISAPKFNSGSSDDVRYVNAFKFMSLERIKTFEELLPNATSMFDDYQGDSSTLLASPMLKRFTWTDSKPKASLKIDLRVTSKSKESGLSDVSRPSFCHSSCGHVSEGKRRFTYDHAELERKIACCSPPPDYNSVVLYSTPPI

[38] = biological target: 1-phosphatidylinositol 3-phosphate 5-kinase (Homo sapiens) (UniProt Q9Y2I7)
[39] = biological target: Phosphorylase b kinase gamma catalytic chain, skeletal muscle/heart isoform (Homo sapiens) (UniProt Q16816)
[40] = biological target: Serine/threonine-protein kinase 3 (Homo sapiens) (UniProt Q13188)
[41] = biological target: Serine/threonine-protein kinase PAK 1 (Homo sapiens) (UniProt Q13153)
[42] = biological target: Cytoplasmic tyrosine-protein kinase BMX (Homo sapiens) (UniProt P51813)
[43] = biological target: Ephrin type-A receptor 7 (Homo sapiens) (UniProt Q15375)
[44] = biological target: Mitogen-activated protein kinase kinase kinase 7 (Homo sapiens) (UniProt O43318)
[45] = tested on: Epidermal growth factor receptor (Homo sapiens), P00533 [UNDEFINED MUTATION]

Measured: residual activity

CSc1cccnc1N1CCN(Cc2nc3ccccc3[nH]2)CC1 [A-769]
inactive: [1] 100% | [2] 94% | [3] 72% | [4] 91% | [5] 100% | [6] 100% | [7] 100% | [8] 85% | [9] 91% | [10] 100% | [11] 100% | [12] 98% | [13] 100% | [14] 100% | [15] 100% | [16] 98% | [17] 87% | [18] 72% | [19] 100% | [20] 100% | [21] 100% | [22] 100% | [23] 100% | [24] 100% | [25] 99% | [26] 69% | [27] 80% | [28] 100% | [29] 68% | [30] 94% | [31] 100% | [32] 78% | [33] 70% | [34] 98% | [35] 100% | [36] 79% | [37] 100% | [38] 100% | [39] 96% | [40] 87% | [41] 100% | [42] 100% | [43] 93% | [44] 74% | [45] 100%

c1ccc(N2CCN(Cc3nc4ccccc4[nH]3)CC2)nc1 [ABT-724]
inactive: [1] 100% | [2] 100% | [3] 83% | [4] 100% | [5] 93% | [6] 100% | [7] 100% | [8] 100% | [9] 100% | [10] 98% | [11] 100% | [12] 74% | [13] 98% | [14] 100% | [15] 95% | [16] 100% | [17] 100% | [18] 100% | [19] 100% | [20] 100% | [21] 100% | [22] 100% | [23] 100% | [24] 100% | [25] 89% | [26] 100% | [27] 76% | [28] 100% | [29] 100% | [30] 75% | [31] 89% | [32] 99% | [33] 99% | [34] 100% | [35] 100% | [36] 100% | [37] 100% | [38] 100% | [39] 100% | [40] 100% | [41] 94% | [42] 100% | [43] 100% | [44] 52% | [45] 100%

From ChEMBL document CHEMBL4507260 (2021)
